Values of other authors, collected in PMC8513935.
Each block holds one compound with its values, some of them ahead of it.

Columns and labels:
[1] = log P octanol/water from commercial databases, averaged (the ESI); settings: Octanol (wet), 25 C
[2] = experimental, compiled by the authors from the literature (the ESI cites the sources)
[3] = derived by the authors as gas->solvent minus gas->water (a hypothetical dry solvent; the ESI), not a two-phase measurement

- log K of transfer, water to solvent [1]: 0.465 log10 K
Compound: C1CCNC1

Compound: C=CCCC
- log K of transfer, gas to solvent ([2]; 1,2-Dichloroethane, 25 C): 2.1 log10 K
- log K of transfer, gas to solvent ([2]; Butan-1-ol, 25 C): 1.94 log10 K
- log K of transfer, gas to solvent ([2]; Butanone, 25 C): 2.11 log10 K
- log K of transfer, gas to solvent ([2]; Chlorobenzene, 25 C): 2.21 log10 K
- log K of transfer, gas to solvent ([2]; Cyclohexanone, 25 C): 2.03 log10 K
- log K of transfer, gas to solvent ([2]; Hexadecane, 25 C): 2.05 log10 K
- log K of transfer, gas to solvent ([2]; Octan-1-ol, 25 C): 1.93 log10 K
- log K of transfer, gas to solvent ([2]; Water, 25 C): -1.23 log10 K
- log K of transfer, water to solvent [1]: 2.8 log10 K

- log K of transfer, water to solvent [1]: 8 log10 K
Compound: CCCCCCCCCCCCCC

- log K of transfer, gas to solvent ([2]; 1,2-Dichloroethane, 25 C): 2.79 log10 K
- log K of transfer, gas to solvent ([2]; 2-Methylpropan-1-ol, 25 C): 2.83 log10 K
- log K of transfer, gas to solvent ([2]; 2-Methylpropan-2-ol, 25 C): 2.69 log10 K
- log K of transfer, gas to solvent ([2]; Benzene, 25 C): 2.97 log10 K
- log K of transfer, gas to solvent ([2]; Butan-1-ol, 25 C): 2.73 log10 K
- log K of transfer, gas to solvent ([2]; Butan-2-ol, 25 C): 2.67 log10 K
- log K of transfer, gas to solvent ([2]; Butanone, 25 C): 2.75 log10 K
- log K of transfer, gas to solvent ([2]; Butyronitrile, 25 C): 2.67 log10 K
- log K of transfer, gas to solvent ([2]; CCl4, 25 C): 3.22 log10 K
- log K of transfer, gas to solvent ([2]; Chlorobenzene, 25 C): 3.23 log10 K
- log K of transfer, gas to solvent ([2]; Chloroform, 25 C): 3.26 log10 K
- log K of transfer, gas to solvent ([2]; Cyclohexane, 25 C): 3.25 log10 K
- log K of transfer, gas to solvent ([2]; Cyclohexanone, 25 C): 2.81 log10 K
- log K of transfer, gas to solvent ([2]; Decan-1-ol, 25 C): 2.5 log10 K
- log K of transfer, gas to solvent ([2]; Di-n-butyl ether, 25 C): 3.01 log10 K
- log K of transfer, gas to solvent ([2]; Dichloromethane, 25 C): 3.01 log10 K
- log K of transfer, gas to solvent ([2]; Diethyl Ether, 25 C): 3.07 log10 K
- log K of transfer, gas to solvent ([2]; Ethanol, 25 C): 2.55 log10 K
- log K of transfer, gas to solvent ([2]; Heptan-1-ol, 25 C): 2.73 log10 K
- log K of transfer, gas to solvent ([2]; Hexadecane, 25 C): 2.96 log10 K
- log K of transfer, gas to solvent ([2]; Hexan-1-ol, 25 C): 2.75 log10 K
- log K of transfer, gas to solvent ([2]; Hexane, 25 C): 3.1 log10 K
- log K of transfer, gas to solvent ([2]; Methanol, 25 C): 2.43 log10 K
- log K of transfer, gas to solvent ([2]; Octan-1-ol, 25 C): 2.71 log10 K
- log K of transfer, gas to solvent ([2]; Pentan-1-ol, 25 C): 2.72 log10 K
- log K of transfer, gas to solvent ([2]; Perfluoroalkane, 25 C): 1.96 log10 K
- log K of transfer, gas to solvent ([2]; Propan-1-ol, 25 C): 2.55 log10 K
- log K of transfer, gas to solvent ([2]; Propan-2-ol, 25 C): 2.53 log10 K
- log K of transfer, gas to solvent ([2]; Propanone, 25 C): 2.6 log10 K
- log K of transfer, gas to solvent ([2]; Propionitrile, 25 C): 2.51 log10 K
- log K of transfer, gas to solvent ([2]; Tetrahydrofuran, 25 C): 3.13 log10 K
- log K of transfer, gas to solvent ([2]; Water, 25 C): -0.9 log10 K
- log K of transfer, water to solvent ([3]; 1,2-Dichloroethane, 25 C): 3.69 log10 K
- log K of transfer, water to solvent ([3]; 2-Methylpropan-1-ol, 25 C): 3.73 log10 K
- log K of transfer, water to solvent ([3]; 2-Methylpropan-2-ol, 25 C): 3.59 log10 K
- log K of transfer, water to solvent ([3]; Acetone, 25 C): 3.5 log10 K
- log K of transfer, water to solvent ([3]; Benzene, 25 C): 3.87 log10 K
- log K of transfer, water to solvent ([3]; Butan-1-ol, 25 C): 3.63 log10 K
- log K of transfer, water to solvent ([3]; Butan-2-ol, 25 C): 3.57 log10 K
- log K of transfer, water to solvent ([3]; Butanone, 25 C): 3.65 log10 K
- log K of transfer, water to solvent ([3]; Butyronitrile, 25 C): 3.57 log10 K
- log K of transfer, water to solvent ([3]; CCl4, 25 C): 4.12 log10 K
- log K of transfer, water to solvent ([3]; Chlorobenzene, 25 C): 4.13 log10 K
- log K of transfer, water to solvent ([3]; Chloroform, 25 C): 4.16 log10 K
- log K of transfer, water to solvent ([3]; Cyclohexane, 25 C): 4.15 log10 K
- log K of transfer, water to solvent ([3]; Cyclohexanone, 25 C): 3.71 log10 K
- log K of transfer, water to solvent ([3]; Decan-1-ol, 25 C): 3.4 log10 K
- log K of transfer, water to solvent ([3]; Di-n-butyl ether, 25 C): 3.91 log10 K
- log K of transfer, water to solvent ([3]; Dichloromethane, 25 C): 3.91 log10 K
- log K of transfer, water to solvent ([3]; Diethyl Ether, 25 C): 3.97 log10 K
- log K of transfer, water to solvent ([3]; Ethanol, 25 C): 3.45 log10 K
- log K of transfer, water to solvent ([3]; Heptan-1-ol, 25 C): 3.63 log10 K
- log K of transfer, water to solvent ([3]; Hexadecane, 25 C): 3.86 log10 K
- log K of transfer, water to solvent ([3]; Hexan-1-ol, 25 C): 3.65 log10 K
- log K of transfer, water to solvent ([3]; Hexane, 25 C): 4 log10 K
- log K of transfer, water to solvent ([3]; Methanol, 25 C): 3.33 log10 K
- log K of transfer, water to solvent ([3]; Octan-1-ol(dry), 25 C): 3.61 log10 K
- log K of transfer, water to solvent ([3]; Pentan-1-ol, 25 C): 3.62 log10 K
- log K of transfer, water to solvent ([3]; Perfluoroalkane, 25 C): 2.86 log10 K
- log K of transfer, water to solvent ([3]; Propan-1-ol, 25 C): 3.45 log10 K
- log K of transfer, water to solvent ([3]; Propan-2-ol, 25 C): 3.43 log10 K
- log K of transfer, water to solvent ([3]; Propionitrile, 25 C): 3.41 log10 K
- log K of transfer, water to solvent ([3]; Tetrahydrofuran, 25 C): 4.03 log10 K
Compound: C1CCCCC1
